Source: patent EP0282309A2, “Azole-aminomethylene bisphosphonic acid derivatives” (YAMANOUCHI PHARMACEUTICAL CO. LTD., priority 1987, dated 1988)

Test system: PTH-induced hypercalcemia rats
Experiment: Hypercalcemia inhibiting effect: serum Ca++ lowering in PTH-induced hypercalcemia rats
Type: in vivo, Wistar male rats
Conditions: blood 45 min after PTH, mean ± S.E., N=5
Method: Typical effective ingredients according to the present invention were administered to parathyroid hormone (hereinafter referred to as "PTH")-induced hypercalcemia rats and, for each ingredient, the serum calcium level lowering effect was estimated. Test method: Human 1 to 34 PTH (obtained from the Peptide Institute) was intravenously administered at a dose of 30 µg/kg to 5-week-old Wistar male rats fasted for 20 hours. For the administration, PTH was dissolved in physiological saline containing 0.1% BSA (bovine serum albumin) and the solution was given to the rats in an amount of 5 ml/kg. The normal control group was given 0.1% BSA-containing physiological saline alone in the same manner. […] The blood samples were immediately centrifuged at 4°C, and 3,000 rpm (revolutions per minute) for 10 minutes. The thus-separated sera were measured for ionic calcium (Ca⁺⁺) concentration by means of a Ca⁺⁺ meter (Sera 250; Horiba Seisakusho).
The compounds according to the invention were dissolved, using sodium hydroxide and hydrochloric acid, in physiological saline (pH 7.4), for subcutaneous administration, in such amounts that the dose amounted to 2 ml/kg, and, for oral administration, in distilled water (pH 7.4) so that the dose amounted to 5 ml/kg. They were administered 24 or 72 hours before PTH administration. The normal control group and the control group were given physiological saline or distilled water in the same manner.
The results for each group were expressed in terms of mean ±S.E. (standard error) and comparison was made among the groups by testing by one-way analysis of variance. The significance level was taken at 5%.
The compound of Example 6 was administered 24 hours before PTH administration while other compounds were administered 72 hours before PTH administration.

[1] = oral administration, 10 mg/kg, 72 hours before PTH
[2] = oral administration, 30 mg/kg, 72 hours before PTH
[3] = oral administration, 100 mg/kg, 72 hours before PTH
[4] = subcutaneous administration, 0.1 mg/kg, 72 hours before PTH
[5] = subcutaneous administration, 0.3 mg/kg, 72 hours before PTH
[6] = subcutaneous administration, 1.0 mg/kg, 72 hours before PTH

| Structure (SMILES) | Serum Ca^++ (oral administration, 10 mg/kg, 24 hours before PTH) | Serum Ca^++ (oral administration, 30 mg/kg, 24 hours before PTH) | Serum Ca^++ (oral administration, 100 mg/kg, 24 hours before PTH) | Serum Ca^++ (subcutaneous administration, 0.1 mg/kg, 24 hours before PTH) | Serum Ca^++ (subcutaneous administration, 0.3 mg/kg, 24 hours before PTH) | Serum Ca^++ (subcutaneous administration, 1.0 mg/kg, 24 hours before PTH) | Serum Ca^++ [1] | Serum Ca^++ [2] | Serum Ca^++ [3] | Serum Ca^++ [4] | Serum Ca^++ [5] | Serum Ca^++ [6] | Serum Ca^++ (subcutaneous administration, 0.03 mg/kg, 72 hours before PTH (30 µg/kg i.v.)) |
| --- | --- | --- | --- | --- | --- | --- | --- | --- | --- | --- | --- | --- | --- |
| O=P(O)(O)C(Nc1nccs1)P(=O)(O)O [Example 6, [(2-thiazolyl)amino]methylenebis(phosphonic acid)] | 1.58 ± 0.03 mmol/L | 1.54 ± 0.02 mmol/L | 1.45 ± 0.03 mmol/L | 1.49 ± 0.01 mmol/L | 1.45 ± 0.01 mmol/L | 1.41 ± 0.01 mmol/L |  |  |  |  |  |  |  |
| Cc1cnc(NC(P(=O)(O)O)P(=O)(O)O)s1 [Example 20, [(5-Methyl-2-thiazolyl)amino]methylene bis(phosphonic acid)] |  |  |  |  |  |  | 1.39 ± 0.01 mmol/L | 1.25 ± 0.01 mmol/L | 1.12 ± 0.0 mmol/L | 0.95 ± 0.01 m moles/liter | 0.93 ± 0.03 m moles/liter | 0.92 ± 0.03 m moles/liter |  |
| Cc1cnc(NC(P(=O)(O)O)P(=O)(O)O)o1 [Example 10, [(5-methyl-2-oxazolyl)amino]methylene bis(phosphonic acid)] |  |  |  |  |  |  | 1.42 ± 0.03 m moles/liter | 1.27 ± 0.03 m moles/liter | 1.15 ± 0.04 m moles/liter | 1.29 ± 0.01 m moles/liter |  |  | 1.46 ± 0.01 m moles/liter |
| Cc1nc(NC(P(=O)(O)O)P(=O)(O)O)sc1C [Example 21, [(4,5-Dimethyl-2-thiazolyl)amino]methylene bis(phosphonic acid)] |  |  |  |  |  |  |  |  |  | 1.48 ± 0.01 mmol/L | 1.40 ± 0.01 mmol/L | 1.30 ± 0.02 mmol/L |  |
